According to patent publication US20190119282A1, “IMIDAZOPYRIDAZINES USEFUL AS INHIBITORS OF THE PAR-2 SIGNALING PATHWAY” (Vertex Pharmaceuticals Incorporated, priority 2013, published 2019):

Experiments:
[1] = target: T1, PAR2 (HT-29 cells, trypsin activation) (Homo sapiens, UniProt P55085); experiment: Ca FLIPR TETRA assay, ANTAGONIST mode, stimulation with 3.1 U/mL trypsin; assay type: cell-based; settings: HT-29 cells
T1 construct: host or cells: HT-29 cells
T1 sequence (P55085 26-397): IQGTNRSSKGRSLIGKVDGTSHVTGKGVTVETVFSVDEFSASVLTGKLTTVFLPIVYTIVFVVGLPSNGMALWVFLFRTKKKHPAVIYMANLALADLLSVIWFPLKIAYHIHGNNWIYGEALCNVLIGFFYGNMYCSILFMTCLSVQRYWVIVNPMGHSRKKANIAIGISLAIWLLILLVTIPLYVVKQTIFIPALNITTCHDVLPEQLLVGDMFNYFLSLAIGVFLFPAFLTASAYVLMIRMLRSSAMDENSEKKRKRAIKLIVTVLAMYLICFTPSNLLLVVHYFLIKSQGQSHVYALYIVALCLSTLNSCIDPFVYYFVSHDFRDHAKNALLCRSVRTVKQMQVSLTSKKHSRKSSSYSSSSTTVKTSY
In short: (§1)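 Cells plated overnight at 37 °C, 5% CO2 in 1% FBS medium; dye loading 45 min at 37 °C then 15 min r.t.; compound added from DMSO/HBSS dilution; first read for intrinsic Ca2+ activation; 30 min r.t. incubation; antagonist read after addition of the fixed activator (8 μM SLIGKV, 1 U/mL thrombin, 3.1 U/mL trypsin or 0.6 μM UTP).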

[2] = target: T2, PAR2 (HT-29 cells, SLIGKV activation) (Homo sapiens, UniProt P55085); experiment: Ca FLIPR TETRA assay, ANTAGONIST mode, stimulation with 8 μM SLIGKV; assay type: cell-based; settings: HT-29 cells
T2 construct: host or cells: HT-29 cells
T2 sequence (P55085 26-397): T1 sequence (P55085 26-397)
In short: as §1

[3] = system: UTP-stimulated Ca2+ response in HT-29 cells; experiment: Ca FLIPR TETRA assay, ANTAGONIST mode, stimulation with 0.6 μM UTP; assay type: cell-based, human; settings: Homo sapiens, HT-29 cells
In short: as §1

[4] = system: Thrombin-stimulated Ca2+ response in HT-29 cells; experiment: Ca FLIPR TETRA assay, ANTAGONIST mode, stimulation with 1 U/mL Thrombin; assay type: cell-based, human; settings: Homo sapiens, HT-29 cells
In short: as §1

[5] = antagonist mode, stimulation with 3.1 U/mL trypsin
[6] = antagonist mode, stimulation with 8 μM SLIGKV
[7] = antagonist mode, stimulation with 0.6 μM UTP
[8] = antagonist mode, stimulation with 1 U/mL Thrombin
[9] = stimulation with 3.1 U/mL trypsin
[10] = stimulation with 1 U/mL Thrombin

Row | Structure (SMILES) | IC50 [1, 5] [nM] | IC50 [2, 6] [nM] | IC50 [3, 7] [nM] | IC50 [4, 8] [nM] | further results
1 | Cc1n[nH]c(C(=O)N2CCN(C(=O)c3cn4nc(-c5ccc(Br)cc5)cc(C(C)(C)C)c4n3)C(C)(C)C2)n1 [Compound I-519] | 0.4 | 0.4 | > 1000 | > 1000 | –
2 | Cc1cc(C(=O)N2CCN(C(=O)c3cn4nc(C5CCC(F)(F)CC5)cc(C(C)(C)C)c4n3)C(C)(C)C2)[nH]n1 [Compound I-437] | 2 | 0.7 | > 1000 | > 1000 | –
3 | CC(C)c1cc(-c2ccccc2)nn2cc(C(=O)N3CCN(C(=O)C(C)(C)O)CC3(C)C)nc12 [Compound I-253] | 185 | 92 | > 1000 | > 1000 | –
4 | CC(C)(C)c1cc(-c2ccc(Br)cc2)nn2cc(C(=O)N3CCNC(=O)C3(C)C)nc12 [Compound I-517] | 2.1 | 2.7 | > 1000 | > 1000 | –
5 | CC(C)(C)c1cc(-c2ccc(F)cc2)nn2cc(C(=O)N3CCN(C#N)C(=O)C3(C)C)nc12 [Compound I-234] | 1.3 | 0.9 | > 1000 | > 1000 | –
6 | Cc1n[nH]cc1C(=O)N1CCN(C(=O)c2cn3nc(-c4ccc(F)cc4)cc(C(C)(C)C)c3n2)C(C)(C)C1 [Compound I-292] | 2.2 | 2.4 | > 1000 | > 1000 | –
7 | Cc1ccc(-c2cc(C(C)C)c3nc(C(=O)N4CCNC(=O)C4(C)C)cn3n2)cc1F [Compound I-301] | 3 | 3 | > 1000 | > 1000 | –
8 | Cc1ccc(-c2cc(C(C)(C)C)c3nc(C(=O)N4CCN(C(=O)c5ccccn5)CC4(C)C)cn3n2)cc1F [Compound I-425] | 1.2 | 1.5 | > 1000 | > 1000 | –
9 | COC(=O)C12CC(C(=O)N3CCN(C(=O)c4cn5nc(-c6ccc(F)cc6)cc(C(C)(C)C)c5n4)C(C)(C)C3)(C1)C2 [Compound I-530] | 2.2 | 1.3 | 500 | 410 | –
10 | Cc1cc(-c2cc(C(C)(C)C)c3nc(C(=O)N4CCN(c5c[nH]cn5)C(=O)C4(C)C)cn3n2)ccc1F [Compound I-418] | 7.1 | 7.6 | > 1000 | > 1000 | –
11 | Cc1ccc(-c2cc(C(C)(C)C)c3nc(C(=O)N4CCN(C(=O)c5ccn[nH]5)CC4(C)C)cn3n2)cc1F [Compound I-424] | 1.2 | 0.9 | > 1000 | > 1000 | –
12 | Cc1ccc(-c2cc(C(C)(C)C)c3nc(C(=O)N4CCN(C(=O)[C@H]5C[C@@](C)(O)C5)CC4(C)C)cn3n2)cc1F [Compound I-415] | 0.5 | 0.3 | > 1000 | > 1000 | –
13 | CCc1cc(-c2ccc(F)cc2)nn2cc(C(=O)N3CCN(C(=O)[C@H](O)CC(C)(C)C)[C@@H](C)C3)nc12 [Compound I-104] | – | – | – | – | IC50 [1, 9]: 7 nM; IC50 ([2]; stimulation with 8 μM SLIGKV): 2 nM; IC50 ([3]; stimulation with 0.6 μM UTP): 12000 nM; IC50 [4, 10]: 15000 nM
14 | Cc1cc(-c2cc(C(C)(C)C)c3nc(C(=O)N4CCNC(=O)C4(C)C)cn3n2)ccc1F [Compound I-329] | 2.8 | 5.9 | > 1000 | > 1000 | –
15 | Cc1nc(N2CCN(C(=O)c3cn4nc(-c5ccc(F)c(C)c5)cc(C(C)C)c4n3)C(C)(C)C2=O)c[nH]1 [Compound I-389] | 25 | 20 | > 1000 | > 1000 | –
16 | CC(C)(C)c1cc(C2CCC(F)(F)CC2)nn2cc(C(=O)N3CCN(C(=O)[C@H]4C[C@@H](C(=O)O)C4)CC3(C)C)nc12 [Compound I-516] | 92 | 39.5 | > 1000 | > 1000 | –
17 | CC(C)(C)c1cc(-c2ccc(Cl)c(F)c2)nn2cc(C(=O)N3CCN(C(=O)c4ncccn4)CC3(C)C)nc12 [Compound I-456] | 0.7 | 0.5 | > 1000 | > 1000 | –
18 | COC(=O)[C@@H]1CCN(C(=O)c2cn3nc(-c4ccc(F)cc4)cc(C(F)(F)F)c3n2)C[C@@H]1C [Compound I-64] | – | – | – | – | IC50 [1, 9]: 220 nM; IC50 ([2]; stimulation with 8 μM SLIGKV): 110 nM; IC50 ([3]; stimulation with 0.6 μM UTP): 42000 nM; IC50 [4, 10]: 5700 nM
19 | CC(C)c1cc(-c2ccc(C(F)(F)F)c(F)c2)nn2cc(C(=O)N3CCN(C(=O)c4ccn[nH]4)CC3(C)C)nc12 [Compound I-277] | 1.3 | 1.3 | > 1000 | > 1000 | –

Row | Structure (SMILES) | IC50 [1, 5] [nM] | IC50 [2, 6] [nM] | IC50 [3, 7] [nM] | IC50 [4, 8] [nM] | further results
20 | CC1(C)C(=O)OCCN1C(=O)c1cn2nc(-c3ccc(F)cc3)cc(C(F)(F)F)c2n1 [Compound I-514] | 315 | 160 | > 1000 | > 1000 | –
21 | CC(C)c1cc(-c2ccc(C(F)(F)F)cc2)nn2cc(C(=O)N3CCN(C(=O)C(C)(C)O)CC3(C)C)nc12 [Compound I-215] | 18.2 | 12 | > 1000 | > 1000 | –
22 | CC(C)(C)OC(=O)N1CCCN(C(=O)c2cn3nc(-c4ccc(F)cc4)cc(C(F)(F)F)c3n2)CC1 [Compound I-84] | – | – | – | – | IC50 [1, 9]: 1800 nM; IC50 ([2]; stimulation with 8 μM SLIGKV): 790 nM; IC50 ([3]; stimulation with 0.6 μM UTP): 5100 nM; IC50 [4, 10]: 6400 nM
23 | CC(C)c1cc(-c2ccc(F)c(Cl)c2)nn2cc(C(=O)N3CCN(C(=O)[C@H]4C[C@](O)(C(F)(F)F)C4)CC3(C)C)nc12 [Compound I-500] | 0.4 | 0.3 | > 1000 | > 1000 | –
24 | CC(C)(C)c1cc(-c2ccc(F)cc2)nn2cc(C(=O)N3CN(Cc4ccccc4)C(=O)C3(C)C)nc12 [Compound I-565] | – | – | – | – | IC50 ([1]; antagonist mode, 3.1 U/mL trypsin): 42 nM; IC50 ([2]; antagonist mode, 8 μM SLIGKV): 43 nM; IC50 ([3]; antagonist mode, 0.6 μM UTP): > 1000 nM; IC50 ([4]; antagonist mode, 1 U/mL Thrombin): > 1000 nM
25 | CC(C)c1cc(-c2ccc(F)cc2)nn2cc(C(=O)N3CCN(C(=O)[C@H](O)CC(C)(C)C)C[C@H]3C)nc12 [Compound I-196] | 20 | 20.5 | > 1000 | > 1000 | –
26 | CC(C)c1cc(-c2ccc(F)cc2)nn2cc(C(=O)N3CCN(C(=O)[C@H](O)CC(C)(C)C)CC3(C)C)nc12 [Compound I-103] | – | – | – | – | IC50 [1, 9]: 0.9 nM; IC50 ([2]; stimulation with 8 μM SLIGKV): 0.4 nM; IC50 ([3]; stimulation with 0.6 μM UTP): > 5000 nM; IC50 [4, 10]: > 5000 nM
27 | CC(C)(C)c1cc(-c2ccc(F)cc2)nn2cc(C(=O)N3CCN(C(=O)C(C)(O)C(F)(F)F)CC3(C)C)nc12 (stereo not shown) [Compound I-317] | 2.9 | 3.4 | > 1000 | > 1000 | –
28 | Cc1cccc(-c2cc(C(C)(C)C)c3nc(C(=O)N4CCN(C(=O)c5nnc(C)o5)CC4(C)C)cn3n2)c1 [Compound I-410] | 8.2 | 6.3 | > 1000 | 950 | –
29 | C[C@@H]1C[C@H](c2cc(-c3ccc(F)cc3)nn3cc(C(=O)N4CCN(C(=O)OC(C)(C)C)CC4(C)C)nc23)C[C@H](C)O1 [Compound I-209] | 16.6 | 16.6 | > 1000 | > 1000 | –
30 | COC(=O)[C@@H]1C[C@@H](C)CN(C(=O)c2cn3nc(-c4ccc(F)cc4)cc(C(F)(F)F)c3n2)C1 [Compound I-49] | – | – | – | – | IC50 [1, 9]: 1500 nM; IC50 ([2]; stimulation with 8 μM SLIGKV): 530 nM; IC50 ([3]; stimulation with 0.6 μM UTP): 6000 nM; IC50 [4, 10]: 5200 nM
31 | Cc1nc(C(=O)N2CCN(C(=O)c3cn4nc(-c5ccc(C)c(F)c5)cc(C(C)(C)C)c4n3)C(C)(C)C2)n[nH]1 [Compound I-416] | 0.6 | 0.6 | > 1000 | > 1000 | –
32 | C[C@H]1CN(C(=O)c2cn3nc(-c4ccc(F)cc4)cc(C(F)(F)F)c3n2)CCN1C(=O)Cc1ccccc1 [Compound I-90] | – | – | – | – | IC50 [1, 9]: 44 nM; IC50 ([2]; stimulation with 8 μM SLIGKV): 15 nM; IC50 ([3]; stimulation with 0.6 μM UTP): > 5000 nM; IC50 [4, 10]: > 5000 nM
33 | CC(C)c1cc(-c2ccc(F)cc2)nn2cc(C(=O)N3CCN(C(=O)CCN4CCCCC4=O)[C@@H](C)C3)nc12 [Compound I-137] | – | – | – | – | IC50 [1, 9]: 240 nM; IC50 ([2]; stimulation with 8 μM SLIGKV): 42 nM; IC50 ([3]; stimulation with 0.6 μM UTP): 40000 nM; IC50 [4, 10]: 43000 nM
34 | O=C(c1cn2nc(-c3ccc(F)cc3)cc(C(F)(F)F)c2n1)N1CCCCC1c1ccccn1 (stereo not shown) [Compound I-79] | – | – | – | – | IC50 [1, 9]: 1700 nM; IC50 ([2]; stimulation with 8 μM SLIGKV): 1300 nM; IC50 ([3]; stimulation with 0.6 μM UTP): 3000 nM; IC50 [4, 10]: 2000 nM
35 | Cc1cccc(-c2cc(C(C)(C)C)c3nc(C(=O)N4CCN(C(=O)c5ncccn5)CC4(C)C)cn3n2)c1 [Compound I-412] | 10 | 6.4 | > 1000 | 710 | –
36 | CC(O)C(=O)N1CCN(C(=O)c2cn3nc(-c4ccc(F)cc4)cc(C(C)C)c3n2)C[C@@H]1C (stereo partly shown) [Compound I-119] | – | – | – | – | IC50 [1, 9]: 2100 nM; IC50 ([2]; stimulation with 8 μM SLIGKV): 200 nM; IC50 ([3]; stimulation with 0.6 μM UTP): > 50000 nM; IC50 [4, 10]: > 50000 nM
37 | CC(C)c1cc(-c2ccc(F)c(F)c2)nn2cc(C(=O)N3CCN(C(=O)[C@H]4C[C@@](O)(C(F)(F)F)C4)CC3(C)C)nc12 [Compound I-264] | 5.2 | 3.1 | > 1000 | > 1000 | –
